Experimental data as given in BindingDB's records for PubMed 37639823 (Shenyang Pharmaceutical University).

Assay: Inhibition of NLRP3 inflammasome in mouse BMDMs assessed as reduction in pyroptosis activity preincubated with LPS for 4 hrs followed by compound addition for 30 mins prior to nigericin addition and measured after 1 hr by ELISA

SMILES	IC50
COc1c(O)cc2c(c1C)C(=O)C=C1[C@@]2(C)CC[C@@]2(C)[C@@H]3C[C@@H](C)C(=O)[C@@H](O)[C@]3(C)CC[C@]12C	2210 nM
CC1=C(O)C(=O)C=C2C1=CC=C1[C@@]2(C)[C@@H](Br)C[C@@]2(C)[C@@H]3C[C@@H](C)C(=O)C[C@]3(C)CC[C@]12C	130 nM
